The values that follow are results of earlier work, collected in patent US20160128970A1, “COMPOSITION AND METHOD FOR TREATING NOSEBLEEDS” (BINYARCO, LLC, priority 2005, published 2016).

bismuth subgallate: the solubility in water entry was “insoluble in water”.
